According to ChEMBL document CHEMBL2390946, “Discovery of TAK-960: an orally available small molecule inhibitor of polo-like kinase 1 (PLK1)” (Bioorg Med Chem Lett, 2013):

What was measured:
Format in all cases: ADME, organism-based
[1] = Half life in rat at 1 mg/kg, iv and 5 mg/kg, po; conditions: in vivo
[2] = Volume of distribution at steady state in rat at 1 mg/kg, iv and 5 mg/kg, po; conditions: in vivo, read-out: Vdss
[3] = Oral bioavailability in rat at 5 mg/kg; conditions: in vivo
[4] = Clearance in rat at 1 mg/kg, iv and 5 mg/kg, po; conditions: in vivo

COc1cc(C(=O)NC2CCN(C)CC2)ccc1Nc1ncc2c(n1)N(C1CCCC1)CC(F)(F)C(=O)N2C
half-life [1]: 3.3 h | Vd [2]: 19.6 L/kg | bioavailability [3]: 11% | clearance [4]: 51 mL/min/kg

COc1cc(C(=O)NC2CCN(C)CC2)c(F)cc1Nc1ncc2c(n1)N(C1CCCC1)CC(F)(F)C(=O)N2C [TAK-960]
half-life [1]: 5.4 h | Vd [2]: 13.7 L/kg | bioavailability [3]: 54% | clearance [4]: 42 mL/min/kg
